Each structure is given as a SMILES string. Several values for one entry are separate records, joined by “and”; a condition that tells them apart may be missing. Equal values may be shown once. Read-outs that look alike come from different tables or passages of the source.

The values that follow come from PMC10644391, “Targeted Reversible Covalent Modification of a Noncatalytic Lysine of the Krev Interaction Trapped 1 Protein Enables Site-Directed Screening for Protein–Protein Interaction Inhibitors” (ACS Pharmacology & Translational Science, 2023).

Data set [1] can be described thus: HEK293 cytotoxicity, resazurin cell viability assay. In kind it is cell-based. The note with it: human, HEK293 cells, means ± SD, n = 3. The protocol:
Maintenance of HEK293 Cells. HEK293 cell lines (American Type Culture Collection (ATCC)) were cultured in Dulbecco's Modified Eagle Medium (DMEM, Invitrogen) supplemented with 10% heat-inactivated fetal bovine serum (FBS, Gibco) and penicillin-streptomycin (1%). Cells were kept at 37 °C and 5% CO2, and were passaged every 72 hours.
Resazurin Cell Viability Assay. The cytotoxicity in HEK293 cells were determined using a resazurin cell viability assay. Test compounds in DMSO were diluted to 100x desired final assay concentration (maximum concentration of 100 µM) in eight-point dose response. 1 µL of test compounds were plated in a 96-well clear bottom tissue culture microplate. 49 µL of cell culture media was added to each well. Cells were diluted to 4 x 10^5 cells/mL, and 50 µL of this cell suspension was seeded to each well for a total of 2 x 10^4 cells/well. The assay plate was kept at 37 °C and 5% CO 2 for either 4 or 48 hours. At the end of the incubation time, 20 µL of 0.5 mM resazurin sodium salt (Alfa Aesar) solution in PBS was added to each well. The assay plates were incubated further at 37 °C for 2 hours. Fluorescence was measured at 531 nm and 595 nm excitation and emission wavelengths, respectively, using a 2104 EnVision® multilabel plate reader. CC50 values were obtained using sigmoidal curved generated with Prism GraphPad (San Diego, CA). SD values are reported as the standard deviation of the CC50 values of 3 biological replicates. All

The subject of data set [2] is HEG1-KRIT1 PPI. The conditions noted are these: cited from earlier work.
Data set [3] has as its system KLF2. Also on record: method as in PMID 33977234. The conditions noted are these: HUVECs, 24 h of incubation; cited from earlier work.
The subject of data set [4] is KLF4. Also on record: method as in PMID 33977234. The conditions noted are these: HUVECs, 24 h of incubation; cited from earlier work.
Data set [5] concerns the target T1, HEG1-KRIT1 PPI (Homo sapiens, UniProt O00522).
T1 construct: a recombinant FERM domain (residues 417–736) of KRIT1; made in house; host or cells: E. coli
The data set can be described thus: HEG1-KRIT1 PPI fluorescence polarization (FP) time-resolved assay. The note with it: for IC50: fluorescence polarization assay after 4 h of incubation; for IC50 / HEG1-KRIT1 PPI Assay kon / koff / Ki: means ± SD, n = 3; for HEG1-KRIT1 PPI Assay kon / koff: global fit across six or more inhibitor concentrations; for Ki: global fit, unit in Figure 2E, read-out: HEG1-KRIT1 PPI Assay Ki (koff/kon). In kind it is biochemical. On the procedure: To evaluate the binding kinetics of HNA inhibitors, a fluorescence polarization (FP) time-resolved assay that uses a recombinant FERM domain (residues 417–736) of KRIT1 and a fluorescence-tagged HEG1 cytoplasmic tail (Cy5-HEG1 7-mer peptide) was developed (Supporting Information). Using HNA as a test compound, the FP data, expressed as millipolarization (mP) units, were obtained every 10 min over the course of 4–7 h. […] Thus, for practical purposes, a 4-h incubation time was established as the standard assay time for non-kinetic IC50 evaluations.
Fluorescence Polarization Assay and Optimization
The KRIT1 FERM domain (residues 417-736) was cloned into plasmid and recombinantly expressed in E. coli as previously described,1 while the Cy5-HEG1 7- mer peptide bearing the Cy5 dye as fluorescent probe was prepared by and purchased from GenScript (New Jersey, US). HEPES- buffered saline (HBS) buffer was supplemented (0.01%) with detergent Triton X -100 to minimize protein adsorption to the microplate. The assay was setup in a 96-well plate plated with 80 nM KRIT1, 4 nM Cy5- HEG1 probe, and either non-tagged HEG1 peptide or HNA as inhibitor (in 5% DMSO). To account for background fluorescence that could interfere with the assay, background wells with only test compound and Cy5 -HEG1 probe (no KRIT1) were also plated. The FP data, expressed as millipolarization (mP) units, were obtained […]
course of 4-7 hours (for kinetic characterization) using a Tecan Spark® Multimode Microplate Reader. The background mP (no KRIT1) was subtracted from mP to account for background fluorescence. All assays were done in triplicates.
Several FP assay conditions were optimized. First, the HEG1 probe engagement of KRIT1 was examined and its interaction was determined to be rapid equilibrium, thus any observed time dependance in response when an inhibitor displaces the probe is the result of inhibitor exchange kinetics and not that of the probe. Next, the affinity of KRIT1 for the probe (Kd) was examined by following the change in polarization signal as a function of a matrix of five probe concentrations and four KRIT1 concentrations (Figure S1B ). A global fit of equation 3 to polarization responses of the inhibitor vs KRIT1 concentration […]
even after 7 hours of incubation. For practical purposes, we have chosen 4 hours as our standard incubation time since it appeared that most of the inhibition has been reached at this time point. The kinetic characterization of HNA as a HEG1- KRIT1 inhibitor will be discussed in greater detail in the kinetic section […]
values to those obtained from the flow cytometry assay. Finally, to assess the robustness of the FP assay, […]
a robust assay) representing an excellent assay with clear differences between positive and negative controls.2 Evaluation of HEG1-KRIT1 inhibitors prior to the optimization of the FP assay were done using flow cytometry, while subsequent compounds were evaluated using the FP assay. All subsequent assay plates included HNA as comparison and control.
Figure S1. Optimization of fluorescence polarization (FP) assay.
HEG1-KRIT1 inhibition. (B) Optimization of KRIT1 protein and Cy5 -HEG1 probe concentrations. Dose-response curve of HNA obtained via fluorescence polarization (C) and flow cytometry (D) assays show […]
All assays were tested in technical duplicates or triplicates in at least 2 different

Data set [6] can be described thus: pKa by potentiometric titration (Sirius T3). It counts as physicochemical. The conditions noted are these: potentiometric titrations, means ± SD of three titrations.
Data set [7] has as its system KLF4. The data set can be described thus: KLF4 gene expression in HUVECs (RT-qPCR). It counts as cell-based, Human. The note with it: HUVEC, 4-h incubation, relative to inactive control (2-hydroxy-1-naphthoic acid), 10-50 µM. The protocol: (§1) Finally, to confirm target engagement in cell-based conditions, selected HNA derivatives (i.e., 2, 3, and 5) were tested in a functional assay that specifically looks at the downstream effects of inhibiting the interaction between HEG1 and KRIT1, using qPCR. […] Here, the ability of compound 2 and HNA derivatives 3 and 5 to upregulate the same transcription factors in HUVEC after 4 h was measured.
(§2) PCR experiments in endothelial cells
(§3) Cell Culture. Human umbilical vein endothelial cells (HUVECs, Lonza) from passages 5 to 7 were grown on fibronectin‐coated 6-well plates (Corning) in complete EGM‐2 media (Lonza). HNA compounds 2, 3 and 5 were used from stocks of 10 mM in DMSO, which were placed on a rotating block at room temperature for 30 min before being diluted for use in cell culture. Compounds were used at the concentrations indicated (10-50µM) in HUVEC medium and added to cell culture wells for 4 hours. Control cells were treated with the same concentration of either DMSO (vehicle) or the non-active compound V for the same duration. Cells were maintained in a humidified incubator at 37°C and 5% CO2.
(§4) RT-qPCR. HUVECs (Lonza) using TRIzol reagent (Thermo Fisher Scientific) and the Quick-RNA MiniPrep Kit (Zymo Research) according to the manufacturer’s instructions. cDNA was transcribed from a total of 1 µg RNA per sample using qScript™ cDNA SuperMix (QuantaBio) according to the manufacturer’s protocol. KAPA SYBR FAST qPCR master mix (Roche) was used on a CFX Connect Real-Time PCR Detection System (BioRad) to determine the relative levels of human gene trascripts. The following primer sets were used: KLF2 (forward) AGACCACGATCCTCCTTGA and (reverse) […]
(§5) […]; KLF4, (forward) […] and (reverse)
(§6) ; and GAPDH (forward) […] and
(§7) (reverse) […] used as internal control. The 2−ΔΔCT method was used to analyze relative changes between vehicle control and test compounds for each data set.
A general note: Quantitative PCR measures a nucleic acid by following its amplification.

Data set [8] has as its system KLF2. The data set can be described thus: KLF2 gene expression in HUVECs (RT-qPCR). The conditions noted are these: HUVEC, 4-h incubation, relative to inactive control (2-hydroxy-1-naphthoic acid), 10-50 µM. In kind it is cell-based, Human. On the procedure:
as §1, §2, §3, §4, §5, §6, §7

T1 sequence (O00522 417-736): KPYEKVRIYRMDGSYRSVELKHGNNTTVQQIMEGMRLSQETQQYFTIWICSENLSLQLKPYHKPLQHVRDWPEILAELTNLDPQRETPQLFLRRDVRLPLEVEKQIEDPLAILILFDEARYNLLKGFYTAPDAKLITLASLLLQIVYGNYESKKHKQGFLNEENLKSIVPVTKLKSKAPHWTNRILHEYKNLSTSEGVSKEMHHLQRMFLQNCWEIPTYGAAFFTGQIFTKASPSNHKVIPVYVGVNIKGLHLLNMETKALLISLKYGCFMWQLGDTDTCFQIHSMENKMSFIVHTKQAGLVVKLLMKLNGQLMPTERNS

As to `O=Cc1c(O)ccc2ccccc12` [Compound 1, 2-hydroxy-1-naphthaldehyde], the CC50 (as a rule, the concentration giving 50% cytotoxicity) at 48 h in data set [1] was around 100 µM. Also, the IC50 (in general, the midpoint of a concentration-inhibition curve) with HEG1-KRIT1 PPI [2] (previously reported data, read-out: HEG1-KRIT1 IC50, flow cytometry assay) is 3.09 µM. The KLF2 expression result in the data set on KLF2 [3] is on record as “upregulation”. For the same compound, in the data set on KLF4 [4], the KLF4 expression result was “upregulation”. For the same compound, the “difference in affinity, KRIT1 (FP assay) vs N-α-acetyl lysine” value on HEG1-KRIT1 PPI [5] (Ki for KRIT1 vs Kd for N-α-acetyl lysine) is recorded as > 70,000 fold. Besides, at HEG1-KRIT1 PPI [5], the IC50 came out at 8.14 ± 0.82 µM, the “HEG1-KRIT1 PPI Assay kon” value worked out at 14.4 ± 0.583 M⁻¹ s⁻¹, the koff (commonly the first-order rate constant of dissociation) was 3.31e-05 s⁻¹ and the Ki was 2.29 ± 0.44 µM. The “inhibition of HEG1-KRIT1 PPI upon co-incubation with free lysine” value at HEG1-KRIT1 PPI [5] (free lysine 50 μM in the assay buffer) is “did not meaningfully change”. Besides, the “HEG1-KRIT1 PPI Assay kon” value at HEG1-KRIT1 PPI [5] (listed as HNA) was found to be 14.4 M⁻¹ s⁻¹. In addition, the pKa (in general, the pH at which an ionisable group is half protonated) in data set [6] amounted to 7.34 ± 0.02.
Regarding `COc1ccc2c(C=O)c(O)ccc2c1` [Compound 2, 2-hydroxy-6-methoxy-1-naphthaldehyde], the “KLF4 mRNA expression” value with KLF4 [7] is “increased KLF2 and KLF4 expression without reaching statistical significance”. The “KLF2 mRNA expression” value in the data set on KLF2 [8] is “increased KLF2 and KLF4 expression without reaching statistical significance”. Further, the CC50 at 48 h in data set [1] was above 100 µM. Further, the KLF2 expression entry in the data set with KLF2 [3] was “upregulation”. Further, in the data set on KLF4 [4], the KLF4 expression entry is on record as “upregulation”. Besides, at HEG1-KRIT1 PPI [5], the IC50 was determined as 3.96 ± 0.84 µM; the “HEG1-KRIT1 PPI Assay kon” value was 14 M⁻¹ s⁻¹ and 14 ± 0.83 M⁻¹ s⁻¹; the koff was 1.54e-05 s⁻¹; the Ki came to 1.1 ± 0.32 µM. In data set [6], this compound displayed a pKa of 7.42 ± 0.03.
`C#Cc1ccc2c(C=O)c(O)ccc2c1` [Compound 3]: the “KLF4 mRNA expression” value with KLF4 [7] is “significant elevations”. Also, the “KLF2 mRNA expression” value with KLF2 [8] was “significant elevations”. Besides, the CC50 at 48 h in data set [1] is above 100 µM. In addition, at HEG1-KRIT1 PPI [5], the IC50 stood at 0.65 ± 0.12 µM, the “HEG1-KRIT1 PPI Assay kon” value amounted to 179 ± 26.1 M⁻¹ s⁻¹, the koff was 0.000118 s⁻¹ and the Ki turned out to be 0.66 ± 0.17 µM. The compound also had a pKa in data set [6] of 6.81 ± 0.05.
As to `O=Cc1c(O)ccc2cc(-c3ccco3)ccc12` [Compound 5], in the data set on KLF4 [7], the “KLF4 mRNA expression” value is given as “significant elevations”. Moreover, the “KLF2 mRNA expression” value in the data set on KLF2 [8] is “significant elevations”. In data set [1], the CC50 at 48 h amounted to 37.1 ± 5.2 µM. On HEG1-KRIT1 PPI [5], half-maximal inhibition (IC50) was put at 0.69 ± 0.11 µM, the “HEG1-KRIT1 PPI Assay kon” value was determined as 108 ± 20.8 M⁻¹ s⁻¹, the koff is 8.81e-05 s⁻¹ and the Ki came out at 0.82 ± 0.25 µM. In addition, in data set [6], the pKa turned out to be 8.08 ± 0.08.
In the case of `O=Cc1ccccc1O` [salicylaldehyde, reference compound], the IC50 with HEG1-KRIT1 PPI [2] (prior SAR studies, read-out: HEG1-KRIT1 PPI inhibition IC50) is above 500 µM.
